Assay results as given in patent US20040259142A1, “Products and methods” (Imperial College Innovations Limited, priority 2003, published 2004).

Columns and labels:
chemokine RANTES = target: T1, chemokine RANTES (Homo sapiens, UniProt P13501); experiment: RANTES binding to lipid-linked oligosaccharide array on nitrocellulose; conditions: array IDs 1-30 at 10 pmol per spot
T1 construct: purchased R&D systems; host or cells: Escherichia coli
T1 sequence (P13501 24-91): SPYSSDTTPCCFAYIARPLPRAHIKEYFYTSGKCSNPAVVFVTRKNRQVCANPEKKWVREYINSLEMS
Description: (§1) The lipid-linked oligosaccharides (in chloroform:methanol:water, 25:25:8 v/v) were applied by jet spray with a sample applicator (Linomat IV, Camag, Switzerland) as 2 mm bands for ‘miniarray’, or as […] spots for ‘microarray’ format, onto 0.45 μm nitrocellulose or 0.2 μm PVDF membranes (both from Bio-Rad, Hemel Hempstead, UK), or aluminium-backed silica gel plates (Merck). When fluorescent NGLs were applied onto the membranes, and examined directly under UV light, 1-2 pmol was clearly visible above the background on the PVDF, whereas on nitrocellulose, 5 pmol was required due to a high fluorescent background. For detection, therefore, the fluorescent NGLs were printed onto PVDF membranes; the non-fluorescent lipid-linked oligosaccharides were printed onto silica gel plates and detected with primulin stain.
(§2) For cytokine/chemokine-binding experiments, the membranes were blocked for 1 h with 3% (w/v) BSA in 10 mM Tris-HCl buffer containing 150 mM NaCl, 2 mM CaCl2 and 0.8 mM MgCl2 (TNCM), overlaid with INFγ or RANTES at 1 μg per ml diluted in TNCM/BSA, incubated for 16 h at 4° C.
(§3) The membranes were washed four times, for 30 min with 10 mM Tris-HCl buffer containing 20 mM NaCl, 5 mM CaCl2 and 2 mM MgCl2 (TNCM-L) to minimize elution of the bound proteins^31. […] Carbohydrate-binding experiments with NGLs resolved by TLC were performed as described^12.

interferon γ (IFN-γ) = target: T2, interferon γ (IFN-γ) (Homo sapiens, UniProt P01579); experiment: interferon γ binding to lipid-linked oligosaccharide array on nitrocellulose
T2 construct: purchased Sigma; host or cells: Escherichia coli
T2 sequence (P01579 24-166): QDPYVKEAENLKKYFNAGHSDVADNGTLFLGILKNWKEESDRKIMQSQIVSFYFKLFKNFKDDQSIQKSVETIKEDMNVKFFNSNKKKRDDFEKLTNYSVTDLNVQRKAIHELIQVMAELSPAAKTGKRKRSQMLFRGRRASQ
Description: as §1, §2, §3

[1] = system: monoclonal antibody HNK-1 (anti-HNK-1); experiment: anti-HNK-1 binding to lipid-linked oligosaccharide arrays on nitrocellulose; conditions: array IDs 1-30 on nitrocellulose, 10 pmol per spot
Description: as §1
(§4) Experiments were carried out at ambient temperature unless stated otherwise. The dilutions of the antibodies used were those recommended by the manufacturers or providers. Concentrations where known are indicated. For antibody-binding experiments, the membranes were ‘blocked’ for 1 h with 3% (w/v) bovine serum albumin (BSA) in phosphate buffered saline (10 mM phosphate buffer containing 150 mM NaCl) pH 7.4 (PBS), and overlaid with for 2 h with the antibodies diluted in phosphate buffered saline containing 3% BSA (PBS/BSA). […]

[2] = target: T3, recombinant soluble L-selectin IgG chimera (Homo sapiens, UniProt P14151); experiment: L-selectin binding to lipid-linked oligosaccharide array on nitrocellulose; conditions: array IDs 1-30 on nitrocellulose, 10 pmol per spot
T3 construct: recombinant soluble L-selectin IgG chimera; made in house; host or cells: transfected Chinese hamster ovary cells (provided by Dr Gray Shaw, Genetics Institute)
T3 sequence (P14151 39-332 limits assumed): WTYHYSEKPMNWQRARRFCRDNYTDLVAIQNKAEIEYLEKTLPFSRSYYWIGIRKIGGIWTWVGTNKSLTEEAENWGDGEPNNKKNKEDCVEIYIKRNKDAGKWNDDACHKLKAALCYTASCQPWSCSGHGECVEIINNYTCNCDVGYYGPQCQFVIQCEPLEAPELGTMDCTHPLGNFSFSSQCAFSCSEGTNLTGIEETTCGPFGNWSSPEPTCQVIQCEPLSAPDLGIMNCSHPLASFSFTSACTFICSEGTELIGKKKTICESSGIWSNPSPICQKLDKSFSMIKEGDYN
Description: as §1
Selectin-binding experiments were carried out as above except that the membranes were ‘blocked’ 1% (w/v) casein in 10 mM Tris-HCl buffer pH 7.4 containing 50 mM CaCl2 and 150 mM NaCl (TBS/Ca) and overlaid for 2 h with L-selectin (1 μg/ml pre-complexed^42 with biotinylated anti-human IgG from Vector), or E-selectin (at 1 μg/ml) in TBS/Ca. Binding of L-selectin was detected by overlaying with HRP-conjugated streptavidin (Sigma), 10 μg/ml, in TBS/Ca containing 1% casein. Binding of E-selectin was detected by overlaying with biotinylated anti-human IgM (Sigma), 5 μg/ml, followed by the HRP-conjugated streptavidin.

monoclonal antibody C-14 = experiment: C-14 antibody binding to lipid-linked oligosaccharide array on nitrocellulose; design: species or system murine; conditions: array IDs 1-30 on nitrocellulose, 10 pmol per spot
Description: as §1, §4

TSG-6 = TSG-6 (Homo sapiens, UniProt P98066); experiment: TSG-6 binding to HA and HA NGL on nitrocellulose-coated FastSlide; conditions: 2 mm bands on FastSlide, DAB colour, FIG. 9
Description: NGL samples in organic-based solvent mixture (chloroform/methanol/water 25:25:8, by vol), and also polysaccharides, glycosaminoglycans (GAGs) and glycoproteins in water, were arrayed with N2-assisted jet spray as 1-2 mm bands or 150 μm spots.
Binding to the arrayed samples was detected using biotinylated antibodies directed to the proteins being investigated, followed by conventional ELISA-DAB colour reaction or by using CyS-labelled streptavidin.
Similarly, different amounts of hyaluronic acid polysaccharide (HA) (5 to 500 ng) and its oligosaccharide derived NGL, HA 8mer-DHPE (0.05 to 5 pmol), were applied as 2 mm bands onto a nitrocellulose coated FastSlide. The interactions of TSG-6 (a protein which can bind to the HA) with the carbohydrate-containing molecules on the support material, HA and the HA NGL, are shown in FIG. 9.

[3] = system: anti-SSEA-1 monoclonal antibody; experiment: anti-SSEA-1 binding to lipid-linked oligosaccharide arrays on membranes; design: species or system murine; conditions: array IDs 1-30 on nitrocellulose, 10 pmol per spot
Description: as §1, §4

[4] = system: anti-L5 monoclonal antibody; experiment: anti-L5 binding to lipid-linked oligosaccharide arrays on nitrocellulose; design: species or system rat; conditions: array IDs 1-30 on nitrocellulose, 10 pmol per spot
Description: as §1, §4

[5] = array IDs 1-30 at 10 pmol per spot
[6] = array IDs 1-30 printed at 1 pmol per spot

TSG-6, sequence (P98066 18-277, species assumed): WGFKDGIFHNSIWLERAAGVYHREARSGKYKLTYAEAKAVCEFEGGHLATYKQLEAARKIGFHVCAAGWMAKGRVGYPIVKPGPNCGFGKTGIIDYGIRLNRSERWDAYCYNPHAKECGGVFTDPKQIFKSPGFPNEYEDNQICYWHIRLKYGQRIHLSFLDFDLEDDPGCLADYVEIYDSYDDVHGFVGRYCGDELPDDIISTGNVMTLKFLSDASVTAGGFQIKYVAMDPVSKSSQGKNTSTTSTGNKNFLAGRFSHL

Question: What does the source list for 6′-SU-3′-SA-Le^x5 [ID 19]?
Answer: RANTES binding (chemokine RANTES): additional or increased binding signals; IFN-γ binding (interferon γ (IFN-γ); [5]): additional or increased binding signals

Question: HNK-1 [ID 20] was tested. Which “binding of anti-HNK-1” value [1] did it give?
Answer: bound

Question: What about the L-selectin binding [2] of the same compound?
Answer: binding

Question: And the RANTES binding (chemokine RANTES)?
Answer: additional or increased binding signals

Question: What about the IFN-γ binding (interferon γ (IFN-γ); [5]) of the same compound?
Answer: additional or increased binding signals

Question: With `CC(=O)NC1C(O)CC(OC2C(O)C(CO)OC(OC3C(CO)OC(OC4C(O)C(CO)OC(OC5C(CO)OC(O)C(O)C5O)C4O)C(NC(C)=O)C3OC3OC(C)C(O)C(O)C3O)C2O)(C(=O)O)OC1C(O)C(O)CO` (stereo not shown) [ID 14, 3′-SA-Le^x-5] as the compound, how does the L-selectin binding [2] read?
Answer: weak

Question: For 3′-SU-Le^x-5 [ID 16], which IFN-γ binding (interferon γ (IFN-γ); [6]) is on record?
Answer: weak binding

Question: `O=C(O)C1=C[C@H](O)[C@@H](OS(=O)(=O)O)[C@H](O[C@H]2[C@H](O)[C@@H](NS(=O)(=O)O)[C@@H](O)O[C@@H]2COS(=O)(=O)O)O1` [ID 28, HS/HEP 2mer] was tested. Which L-selectin binding [2] did it give?
Answer: binding

Question: What about the IFN-γ binding (interferon γ (IFN-γ); [6]) of the same compound?
Answer: clear preference

Question: With Man5-phosphate [ID 21] as the compound, how does the L-selectin binding [2] read?
Answer: binding

Question: How did the IFN-γ binding (interferon γ (IFN-γ); [6]) turn out when 3′,6-SU-Le^x-5 [ID 17] was run?
Answer: weak binding

Question: How did the “binding of C-14 antibody” value (monoclonal antibody C-14) turn out when `CC(=O)NC1C(OC2C(O)C(CO)OC(OC3C(CO)OC(O)C(O)C3O)C2O)OC(CO)C(OC2OC(CO)C(O)C(O)C2OC2OC(C)C(O)C(O)C2O)C1OC1OC(C)C(O)C(O)C1O` (stereo not shown) [ID 12, lacto-N-neo-difucohexaose I] was run?
Answer: bound

Question: Which “sensitivity of detection of TSG-6 binding” value (TSG-6) does the source give for hyaluronic acid [HA polysaccharide] here?
Answer: nanograms

Question: With lacto-N-fucopentaose III [ID 10] as the compound, how does the “binding of anti-SSEA-1” value [3] read?
Answer: bound

Question: And the “binding of anti-L5” value [4]?
Answer: bound
